Converted amounts (≈) assume the structure as drawn.
details: buffer; pH 7.4; 200.0 µM

| solubility kinetic [µg/mL] | Compound |
| --- | --- |
| 41.5 (≈ 132 µM) | COc1ccc(C(=O)NC(C)CCc2ccccc2)c(OC)c1 (stereo not given) |
| 34.9 (≈ 137 µM) | COc1ccccc1N1C(=O)c2cccnc2C1=O |
| 39.7 (≈ 149 µM) | O=C(Nc1cccc2ncccc12)c1ccccc1F |
| 5.7 (≈ 17.3 µM) | O=C(COC(=O)c1ccccc1O)NCc1ccc2c(c1)OCO2 |
| 13.2 (≈ 52.3 µM) | CC(C)C(=O)N=c1sc2cccc(F)c2n1C |
| > 41.6 | O=C(CSc1ncccn1)NCCC1=CCCCC1 |
| 40 (≈ 132 µM) | CC(C)N(Cc1ccccc1)C(=S)Nc1ccccc1F |
| 2.6 (≈ 7.99 µM) | CC(Oc1ccccc1)C(=O)Nc1nc(-c2ccncc2)cs1 (stereo not given) |
| 30.7 (≈ 122 µM) | Cc1cccc(N2C(=O)Cc3ccccc3C2=O)c1 |
| > 34.1 | Cc1c(C(=O)O)c(C(=O)O)c2n1CCS2 |
| 4.7 (≈ 18.1 µM) | Cc1ccc(C2Nc3cccc4cccc(c34)N2)cc1 |
| < 0.2 | N=C1/C(=C/c2cccn2Cc2ccc(F)cc2)C(=O)N=C2SC=CN12 |
| 4 (≈ 18.6 µM) | Nc1ccccc1SCc1ccccc1 |
| 44.2 (≈ 138 µM) | CCN1CCCC1CNS(=O)(=O)c1ccc(F)c(Cl)c1 (stereo not given) |
| 6.2 (≈ 17.1 µM) | CCCC(NC(=O)c1ccc(Br)o1)c1nc2ccccc2[nH]1 (stereo not given) |
| > 51.7 | COc1ccc(C(C)(C)C)cc1NC(=O)CCNC(=O)c1ccco1 |
| 0.6 (≈ 2.13 µM) | N=c1oc2ccccc2cc1C(=O)Nc1ccc(F)cc1 |
| > 48.1 | CCOCCCNC(=O)c1ccc(NC(=O)C2CCCO2)cc1 (stereo not given) |
| 20.5 (≈ 55.4 µM) | Cc1ccc(NC(=O)NC(=O)COc2c(F)c(F)cc(F)c2F)c(C)c1 |
| 1 (≈ 3.36 µM) | CCCNC(=O)COC(=O)c1ccc(-c2ccccc2)cc1 |

| solubility kinetic [µg/mL] | Compound |
| --- | --- |
| > 52.4 | Cc1nc2ccc(NS(=O)(=O)c3cccc([N+](=O)[O-])c3)cc2s1 |
| 46.2 (≈ 132 µM) | Cc1onc(-c2ccccc2)c1CNC(=O)C1COc2ccccc2O1 (stereo not given) |
| > 46.5 | O=C(Nn1cnc2ccccc2c1=O)c1ccc([N+](=O)[O-])cc1 |
| < 0.3 | C=C1C(C(=O)Nc2ccccc2)C1C(=O)Nc1ccccc1 (stereo not given) |
| > 41.8 | COc1ccc(CC(=O)NCCN2CCOCC2)cc1 |
| 39.9 (≈ 136 µM) | Cc1ccc(C)c(NC(=O)CSc2nc(C)cs2)c1 |
| 16.5 (≈ 49 µM) | Cc1cccc(CC2CC(=O)N(c3nc4ccccc4s3)C2=O)c1 (stereo not given) |
| < 0.8 | COc1cccc(C(=O)COc2ccc(NC(=O)c3ccccc3)cc2)c1 |
| 16.7 (≈ 50.4 µM) | CCc1nc2sc3c(=O)[nH]cnc3c2c2c1CSC(C)(C)C2 |
| 3.4 (≈ 13 µM) | COc1ccccc1C(=O)Nc1c[nH]c(=O)[nH]c1=O |
| > 41.4 | Cc1nnc(Cn2cnc3c2c(=O)n(C)c(=O)n3C)o1 |
| > 49.6 | Cc1ccc(S(=O)(=O)Nc2nc(-c3ccccc3)cs2)cc1 |
| 35.2 (≈ 126 µM) | Cc1ccc(-c2cnc(-c3ccccc3C(=O)O)o2)cc1 |
| 2 (≈ 6.15 µM) | Cc1cc(=O)[nH]c(/N=C(\N)Nc2ccc(SC(F)F)cc2)n1 |
| > 49.1 | NS(=O)(=O)c1ccc(O)c(NC(=O)c2ccc([N+](=O)[O-])o2)c1 |
| 9.5 (≈ 26.9 µM) | C=CCn1cc(/C=C2\SC(N3CCOCC3)=NC2=O)c2ccccc21 |
| > 50.8 | O=C(CCc1ccccc1)Nc1ccccc1C(=O)N1CCOCC1 |
| 41.9 (≈ 137 µM) | Cc1cccc(NC(=O)C(=O)NCCCN2CCOCC2)c1 |
| < 0.9 | COc1ccc(S(=O)(=O)N2CCC(C(=O)Oc3cccc(C)c3)CC2)cc1OC |
| 45.6 (≈ 134 µM) | CC(OC(=O)CCCC(=O)Nc1ccccc1)C(=O)c1ccccc1 (stereo not given) |

| solubility kinetic [µg/mL] | Compound |
| --- | --- |
| < 0.3 | Cn1c(SCc2ccccc2F)nc2ccccc2c1=O |
| > 41.6 | Fc1cccc(Cc2noc(CN3CCOCC3)n2)c1 |
| 26.5 (≈ 80.2 µM) | COc1ccc(Nc2nc(N)c([N+](=O)[O-])c(N3CCCC3)n2)cc1 |
| > 48.4 | COc1ccc(C(=O)O)cc1S(=O)(=O)NCc1ccccn1 |
| > 56.1 | CC1(C)C(=O)Nc2ccccc2N1C(=O)COC(=O)c1cccnc1Cl |
| > 40.2 | COc1ccccc1NC1=NC(CO)(CO)CS1 |
| 0.3 (≈ 0.932 µM) | O=c1[nH]cnc2c1c(-c1ccccc1)cn2-c1cccc(Cl)c1 |
| 2.7 (≈ 6.73 µM) | COCCn1c(C)cc(C(=O)COC(=O)/C=C/c2ccc(OC)cc2OC)c1C |
| > 37.5 | Cc1cccc(Nc2nc(N)nc(CCl)n2)c1 |
| 9.4 (≈ 31.8 µM) | N#CC(C(=O)c1ccccc1Cl)=C1SCCCS1 |
| 1.1 (≈ 2.98 µM) | CC(C)(C)NS(=O)(=O)c1ccc(NC(=S)NC(=O)C2CCC2)cc1 |
| 40.7 (≈ 137 µM) | COc1ccc(CC(=O)N(Cc2ccccc2)C(C)C)cc1 |
| > 49.3 | CCCN(CC(=O)Nc1ccccc1C)C(=O)c1cc(C)oc1C |
| > 40.8 | Cc1ccc(-c2ocnc2C(=O)N2CCOCC2)cc1 |
| > 53.2 | CN(C)S(=O)(=O)c1cccc(C(=O)OCC(=O)N2CCCC2=O)c1 |
| 2.3 (≈ 7.03 µM) | CCCCn1c(=O)[nH]c2nc3cc(NC(C)=O)ccc3nc2c1=O |
| > 49.4 | CCCn1c(=O)cc(N)n(-c2ccc(OC(F)(F)F)cc2)c1=O |
| > 44.2 | COc1ccc(C(=O)NCCN2CCOCC2)c(OC)c1 |
| 19.7 (≈ 63.5 µM) | CCOc1ccc(OCC)c(S(=O)(=O)n2ccnc2C)c1 |

| Compound | solubility kinetic [µg/mL] |
| --- | --- |
| O=C(COc1ccccc1)NCCc1cnc[nH]1 | > 36.8 |
